The record followed here is US12428406B2 (PMV Pharmaceuticals, Inc., priority 2019, dated 2025).

For this test, the target named is T1, p53 Y220C (Homo sapiens, UniProt P04637, Y220C).
T1 construct: The recombinant protein was a truncation mutant containing only amino acids 94-312 of p53; made in house; host or cells: E. coli
T1 sequence (P04637 94-312, change not shown): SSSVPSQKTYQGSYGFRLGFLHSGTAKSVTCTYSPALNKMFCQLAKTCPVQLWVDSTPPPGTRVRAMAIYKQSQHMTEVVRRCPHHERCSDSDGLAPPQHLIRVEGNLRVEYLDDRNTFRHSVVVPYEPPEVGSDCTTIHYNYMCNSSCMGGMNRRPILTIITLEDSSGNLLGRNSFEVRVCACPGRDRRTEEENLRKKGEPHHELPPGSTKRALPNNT
As to the kind of experiment: In vitro DNA binding activity assay (HTRF / TR-FRET): stabilization of p53 Y220C and increase of its DNA binding activity. In kind it is biochemical. The settings on record: recombinant His-tagged p53 Y220C DNA binding domain (aa 94-312), biotin-labeled consensus DNA, incubated at 27° C. or 29° C. for 60 min. Put shortly:
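Compound effect on DNA binding of recombinant His-p53 Y220C (E. coli) to biotin-labeled consensus DNA, expressed as SC150, the concentration giving 50% increase versus untreated. Serial 3-fold DMSO dilutions of 4.5 mM stocks; room-temperature steps of 15 then 20 min.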
A general note: TR-FRET usually uses a lanthanide donor and a delayed reading to cut background.
For `COc1cc(S(C)(=O)=O)ccc1NCC#Cc1cc2c(NC(=O)NC3CCN(C)CC3)cccc2n1CC(F)(F)F` [Compound 6A, 3-(2-{3-[(4-methanesulfonyl-2-methoxyphenyl)amino]prop-1-yn-1-yl}-1-(2,2,2-trifluoroethyl)-1H-indol-4-yl)-1-(1-methylpiperidin-4-yl)urea], the “SC150 (concentration of the compound required to increase the DNA binding activity by 50%)” value is “++++ (++++ = 0.2 μM ≤ SC150 < 1 μM)”.

Turning to `CNC(=O)c1ccc(NCC#Cc2cc3c(NC4CCOCC4)cccc3n2CC(F)(F)F)c(OC)c1` [Compound 1003A], the “SC150 (concentration of the compound required to increase the DNA binding activity by 50%)” value is on record as “+ (+ = 0 μM ≤ SC150 < 0.05 μM)”.

In the case of `COc1cc(S(N)(=O)=O)ccc1NCC#Cc1cc2c(NC3CCN(CC(C)OC(C)=O)CC3)cccc2n1CC(F)(F)F` (stereo not shown) [Compound 599A, 1-{4-[(2-{3-[(2-methoxy-4-sulfamoylphenyl)amino]prop-1-yn-1-yl}-1-(2,2,2-trifluoroethyl)-1H-indol-4-yl)amino]piperidin-1-yl}propan-2-yl acetate], the “SC150 (concentration of the compound required to increase the DNA binding activity by 50%)” value is reported as “+ (+ = 0 μM ≤ SC150 < 0.05 μM)”.

For `CCN1CC[C@H](Nc2cccc3c2cc(C#CCNc2ccc(S(C)(=O)=O)cc2OC)n3CC(F)(F)F)[C@H](F)C1` (racemic) [Compound 820A, rac-N-[(3R,4S)-1-ethyl-3-fluoropiperidin-4-yl]-2-{3-[(4-methanesulfonyl-2-methoxyphenyl)amino]prop-1-yn-1-yl}-1-(2,2,2-trifluoroethyl)-1H-indol-4-amine], the “SC150 (concentration of the compound required to increase the DNA binding activity by 50%)” value was “+ (+ = 0 μM ≤ SC150 < 0.05 μM)”.

With `COc1cc(S(C)(=O)=O)ccc1NCC#Cc1cc2c(NC3CCN(CC(C)(C)OC)CC3)cccc2n1CC(F)(F)F` [Compound 692A, 2-{3-[(4-methanesulfonyl-2-methoxyphenyl)amino]prop-1-yn-1-yl}-N-[1-(2-methoxy-2-methylpropyl)piperidin-4-yl]-1-(2,2,2-trifluoroethyl)-1H-indol-4-amine], the “SC150 (concentration of the compound required to increase the DNA binding activity by 50%)” value is “+ (+ = 0 μM ≤ SC150 < 0.05 μM)”.

Take `COc1cc(S(=O)(=O)N2CCN(C(C)=O)CC2)ccc1NCC#Cc1cc2c(NC3CCN(C)CC3)cccc2n1CC(F)(F)F` [Compound 479A]: the “SC150 (concentration of the compound required to increase the DNA binding activity by 50%)” value is reported as “+ (+ = 0 μM ≤ SC150 < 0.05 μM)”.

Consider `CS(=O)(=O)c1ccc(NCC#Cc2cc3c(N[C@H]4CC[C@@H](N5CC6(COC6)C5)CC4)cccc3n2CC(F)(F)F)c(OCC(F)(F)F)c1` [Compound 232A, 2-(3-{[4-methane-sulfonyl-2-(2,2,2-trifluoro-ethoxy)phenyl]amino}prop-1-yn-1-yl)-N-[(1S,4S)-4-{2-oxa-6-azaspiro[3.3]heptan-6-yl}cyclohexyl]-1-(2,2,2-trifluoroethyl)-1H-indol-4-amine], for which the “SC150 (concentration of the compound required to increase the DNA binding activity by 50%)” value was “+ (+ = 0 μM ≤ SC150 < 0.05 μM)”.

In the case of `COCCN1CC[C@H](Nc2cccc3c2cc(C#CCNc2ccc(C(=O)OC)cc2OC)n3CC(F)(F)F)[C@H](F)C1` [Compound 902A], the “SC150 (concentration of the compound required to increase the DNA binding activity by 50%)” value is “+ (+ = 0 μM ≤ SC150 < 0.05 μM)”.

On to `CCC(=O)OCC(CN1CCC(Nc2cccc3c2cc(C#CCNc2ccc(S(C)(=O)=O)cc2OC)n3CC(F)(F)F)CC1)OC(=O)CC` (stereo not shown) [Compound 586A, 1-{4-[(2-{3-[(4-methanesulfonyl-2-methoxyphenyl)amino]prop-1-yn-1-yl}-1-(2,2,2-trifluoroethyl)-1H-indol-4-yl)amino]piperidin-1-yl}-3-(propanoyloxy)propan-2-yl propanoate], for which the “SC150 (concentration of the compound required to increase the DNA binding activity by 50%)” value is reported as “+ (+ = 0 μM ≤ SC150 < 0.05 μM)”.

On to `CCOc1cc(S(C)(=O)=O)ccc1NCC#Cc1cc2c(N[C@H]3CC[C@H](N4CC5(CCOCC5)C4)CC3)cccc2n1CC(F)(F)F` [Compound 329A, N-((1R,4R)-4-(7-oxa-2-azaspiro[3.5]nonan-2-yl)cyclohexyl)-2-(3-((2-ethoxy-4-(methylsulfonyl)phenyl)amino)prop-1-yn-1-yl)-1-(2,2,2-trifluoroethyl)-1H-indol-4-amine], for which the “SC150 (concentration of the compound required to increase the DNA binding activity by 50%)” value is “+ (+ = 0 μM ≤ SC150 < 0.05 μM)”.
